Assay results: ChEMBL document CHEMBL4152237, “Identification of novel β-lactams and pyrrolidinone derivatives as selective Histamine-3 receptor (H3R) modulators as possible anti-obesity agents” (Eur J Med Chem, 2018)
Active and inactive are the calls of the source. No rule for the calls is given here.

Legend:
Histamine H3 receptor = Histamine H3 receptor (Homo sapiens, UniProt Q9Y5N1); assay: Agonist activity at human H3R expressed in HEK293 cells harboring glosensor-22F cAMP plasmid DNA assessed as inhibition of forskolin-stimulated cAMP accumulation at 10 uM preincubated with cells followed by forskolin addition measured after 10 mins by luminescence assay relative to control; type: functional, cell-based
[1] = biological target: T1, 5-hydroxytryptamine receptor 2C (Homo sapiens) (UniProt P28335); assay: Agonist activity at human 5-HT2C expressed in HEK293 cells harboring luc2P/NFAT-RE plasmid at 10 uM after 6 to 8 hrs by luciferase reporter gene assay; type: functional, cell-based
T1 sequence (whole entry): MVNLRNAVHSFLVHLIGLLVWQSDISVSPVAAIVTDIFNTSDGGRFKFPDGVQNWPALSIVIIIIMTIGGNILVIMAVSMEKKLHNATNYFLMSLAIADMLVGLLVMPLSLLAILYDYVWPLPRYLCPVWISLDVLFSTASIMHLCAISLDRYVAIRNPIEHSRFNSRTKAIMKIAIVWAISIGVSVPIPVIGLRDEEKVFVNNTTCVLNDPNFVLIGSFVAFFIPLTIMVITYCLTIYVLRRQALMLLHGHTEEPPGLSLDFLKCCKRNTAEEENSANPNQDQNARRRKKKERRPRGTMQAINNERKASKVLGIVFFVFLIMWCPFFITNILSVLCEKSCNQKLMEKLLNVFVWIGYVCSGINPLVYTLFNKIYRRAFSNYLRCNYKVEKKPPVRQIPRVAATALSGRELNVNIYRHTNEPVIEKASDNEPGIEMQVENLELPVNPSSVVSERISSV

Sequence of Histamine H3 receptor (Q9Y5N1 whole entry): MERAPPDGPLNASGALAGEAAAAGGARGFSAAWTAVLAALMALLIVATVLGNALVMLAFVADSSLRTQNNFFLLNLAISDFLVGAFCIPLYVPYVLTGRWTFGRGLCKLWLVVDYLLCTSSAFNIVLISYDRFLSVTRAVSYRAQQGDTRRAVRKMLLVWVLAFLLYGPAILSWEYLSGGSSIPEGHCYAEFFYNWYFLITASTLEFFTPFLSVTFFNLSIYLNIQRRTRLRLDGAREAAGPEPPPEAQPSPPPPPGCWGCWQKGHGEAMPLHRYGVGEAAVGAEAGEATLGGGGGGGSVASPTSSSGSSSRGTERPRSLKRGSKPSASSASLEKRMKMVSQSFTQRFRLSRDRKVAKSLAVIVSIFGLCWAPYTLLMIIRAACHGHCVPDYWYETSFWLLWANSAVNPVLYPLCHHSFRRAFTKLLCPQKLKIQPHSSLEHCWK

inhibition (Histamine H3 receptor) | Activity [1] | Structure (SMILES)
inactive | inactive | COc1ccc(NC2(c3cc(C)cc(C)c3)C(=O)N(C(C)(C)C)C(=O)/C2=C/c2ccccc2)cc1 (stereo unspecified)
inactive | inactive | O=C1C=C[C@]23C(c4ccccc4)=CC(=O)N2[C@H](c2cccc(OC(F)(F)F)c2)C(=O)N[C@@H]3C1
inactive | inactive | CC(C)(C)NC(=O)C(c1cccc(Cl)c1)N1C(=O)C(I)=C(c2ccccc2)C12C=CC(=O)C=C2 (stereo unspecified)
inactive | inactive | COc1ccccc1[C@@H]1C(=O)N[C@@H]2CC(=O)C=C[C@@]23C(c2ccccc2)=CC(=O)N13
inactive | inactive | Cc1cc(C(C(=O)NC(C)(C)C)N2C(=O)C(I)=C(c3ccccc3)C23C=CC(=O)C=C3)cc(C)c1O (stereo unspecified)
inactive | inactive | O=C1C=C[C@]23C(c4ccccc4)=CC(=O)N2[C@H](c2cccc(Cl)c2)C(=O)N[C@@H]3C1
inactive | inactive | CC(C)(C)NC(=O)C(c1ccccc1[N+](=O)O)N1C(=O)C(I)=C(c2ccccc2)C12C=CC(=O)C=C2 (stereo unspecified)
inactive | inactive | COc1ccc(NC2(c3cc(F)cc(F)c3)C(=O)N(C(C)(C)C)C(=O)/C2=C/c2ccccc2)cc1 (stereo unspecified)
inactive | inactive | CC(C)(C)NC(=O)C(c1cc2c(cc1Br)OCO2)N1C(=O)C(I)=C(c2ccccc2)C12C=CC(=O)C=C2 (stereo unspecified)
inactive | inactive | COc1ccc(N2C(=O)C(=Cc3ccccc3)C2(C(=O)NC2CCCCC2)c2ccccc2)cc1OC (stereo unspecified)
inactive | inactive | COc1ccc(NC2(c3cccc(Cl)c3)C(=O)N(C(C)(C)C)C(=O)/C2=C/c2ccccc2)cc1 (stereo unspecified)
inactive | inactive | COc1ccc(N2C(=O)/C(=C\c3ccccc3)C2(C(=O)NC(C)(C)C)c2ccc(F)cc2)cc1 (stereo unspecified)
inactive | inactive | COc1ccc(NC2(c3cc(F)c(F)c(F)c3)C(=O)N(C(C)(C)C)C(=O)/C2=C/c2ccccc2)cc1 (stereo unspecified)
inactive | inactive | O=C1C=C[C@]23C(c4ccccc4)=CC(=O)N2[C@H](c2ccc(F)cc2)C(=O)N[C@@H]3C1
inactive | inactive | CC(C)(C)NC(=O)C(c1ccccc1Br)N1C(=O)C(I)=C(c2ccccc2)C12C=CC(=O)C=C2 (stereo unspecified)
inactive | inactive | COc1cc(N2C(=O)C(=Cc3ccccc3)C2(C(=O)NC(C)(C)C)c2ccc(Br)cc2)cc(OC)c1OC (stereo unspecified)
inactive | inactive | O=C1C=C[C@]23C(c4ccccc4)=CC(=O)N2[C@H](c2cc(F)c(F)c(F)c2)C(=O)N[C@@H]3C1
inactive | inactive | O=C1C=C[C@]23C(c4ccccc4)=CC(=O)N2[C@H](c2ccc(OC(F)(F)F)cc2)C(=O)N[C@@H]3C1
inactive | inactive | COc1ccc(N2C(=O)/C(=C\c3ccccc3)C2(C(=O)NC(C)(C)C)c2cc(C)cc(C)c2)cc1 (stereo unspecified)
inactive | inactive | O=C1C=C[C@]23C(c4ccccc4)=CC(=O)N2[C@H](c2cccc(Br)c2)C(=O)N[C@@H]3C1
 | inactive | COc1ccc(N2C(=O)/C(=C\c3ccccc3)C2(C(=O)NC(C)(C)C)c2cc(F)cc(F)c2)cc1 (stereo unspecified)
inactive | inactive | COC1=CC2(C=C(OC)C1=O)C(c1ccccc1)=C(I)C(=O)N2C(C(=O)NC1CCCCC1)c1cc(OC)c(OC)c(OC)c1 (stereo unspecified)
inactive | inactive | O=C1C=CC2(C=C1)C(c1ccccc1)=C(I)C(=O)N2C(C(=O)NC1CCCCC1)c1ccc(Cl)cc1 (stereo unspecified)
inactive | inactive | COc1cc(NC2(c3cc(F)cc(F)c3)C(=O)N(C3CCCCC3)C(=O)/C2=C/c2ccccc2)cc(OC)c1OC (stereo unspecified)
inactive | inactive | COc1ccc(N2C(=O)/C(=C\c3ccccc3)C2(C(=O)NC(C)(C)C)c2ccc(C(F)(F)F)cc2)cc1 (stereo unspecified)
inactive | inactive | O=C1C=CC2(C=C1)C(c1ccccc1)=C(I)C(=O)N2C(C(=O)NC1CCCCC1)c1ccccc1[N+](=O)[O-] (stereo unspecified)
inactive | inactive | COc1ccc(N2C(=O)/C(=C\c3ccccc3)C2(C(=O)NC(C)(C)C)c2ccc(Br)cc2)cc1 (stereo unspecified)

inhibition (Histamine H3 receptor) | Activity [1] | Structure (SMILES)
inactive | inactive | O=C1C=C[C@]23C(c4ccccc4)=CC(=O)N2[C@H](c2ccc(Cl)cc2)C(=O)N[C@@H]3C1
inactive | inactive | Cc1ccc([C@@H]2C(=O)N[C@@H]3CC(=O)C=C[C@@]34C(c3ccccc3)=CC(=O)N24)cc1
inactive | inactive | COc1ccc(N2C(=O)/C(=C\c3ccccc3)C2(C(=O)NC(C)(C)C)c2cccc(Cl)c2)cc1 (stereo unspecified)
inactive | inactive | COc1ccc(C(C(=O)NC(C)(C)C)N2C(=O)C(I)=C(c3ccccc3)C23C=CC(=O)C=C3)cc1C (stereo unspecified)
inactive | inactive | O=C1C=C[C@]23C(c4ccccc4)=CC(=O)N2[C@H](c2ccc(Cl)c(F)c2)C(=O)N[C@@H]3C1
inactive | inactive | COc1ccc(C2(Nc3cc(OC)c(OC)c(OC)c3)C(=O)N(C3CCCCC3)C(=O)/C2=C/c2ccccc2)cc1 (stereo unspecified)
 | inactive | N#Cc1ccc([C@@H]2C(=O)N[C@@H]3CC(=O)C=C[C@@]34C(c3ccccc3)=CC(=O)N24)cc1
inactive | inactive | COC1=CC2(C=C(OC)C1=O)C(c1ccccc1)=C(I)C(=O)N2C(C(=O)NC1CCCCC1)c1cccc([N+](=O)[O-])c1 (stereo unspecified)
inactive | inactive | O=C1C=C[C@]23C(c4ccccc4)=CC(=O)N2[C@H](c2ccccc2)C(=O)N[C@@H]3C1
inactive | inactive | COc1ccc(C(C(=O)NC2CCCCC2)N2C(=O)C=C(c3ccccc3)C23C=CC(=O)C=C3)cc1C (stereo unspecified)
inactive | inactive | COc1cc(OC)c(C(C(=O)NC2CCCCC2)N2C(=O)C(I)=C(c3ccccc3)C23C=CC(=O)C=C3)cc1OC (stereo unspecified)
inactive | inactive | COc1ccc(NC2(c3ccc(F)cc3)C(=O)N(C3CCCCC3)C(=O)/C2=C/c2ccccc2)cc1OC (stereo unspecified)
inactive | inactive | COc1ccc(N2C(=O)/C(=C\c3ccccc3)C2(C(=O)NC2CCCCC2)c2cc(F)cc(F)c2)cc1OC (stereo unspecified)
inactive | inactive | COC1=CC2(C=C(OC)C1=O)C(c1ccccc1)=C(c1ccc(OC)cc1)C(=O)N2C(C(=O)NC1CCCCC1)c1cc(OC)c(OC)c(OC)c1 (stereo unspecified)
inactive | inactive | COc1ccc(N2C(=O)C(=Cc3ccccc3)C2(C(=O)NC(C)(C)C)c2ccc(OC)cc2)cc1 (stereo unspecified)
inactive | inactive | COc1ccc(C(C(=O)NC2CCCCC2)N2C(=O)C(I)=C(c3ccccc3)C23C=CC(=O)C=C3)cc1C (stereo unspecified)
inactive | inactive | COc1ccc(NC2(c3ccc(Br)cc3)C(=O)N(C3CCCCC3)C(=O)/C2=C/c2ccccc2)cc1OC (stereo unspecified)
inactive | inactive | COc1cc(NC2(c3ccc(Cl)c(F)c3)C(=O)N(C(C)(C)C)C(=O)/C2=C/c2ccccc2)cc(OC)c1OC (stereo unspecified)
inactive | inactive | COc1ccc(C(C(=O)NC(C)(C)C)N2C(=O)C(I)=C(c3ccccc3)C23C=CC(=O)C=C3)cc1 (stereo unspecified)
inactive | inactive | COc1ccc(C2=C(c3ccccc3)C3(C=CC(=O)C=C3)N(C(C(=O)NC3CCCCC3)c3ccc(OC)c(C)c3)C2=O)cc1 (stereo unspecified)
inactive | inactive | COc1ccc(NC2(c3ccc(Cl)c(F)c3)C(=O)N(C(C)(C)C)C(=O)/C2=C/c2ccccc2)cc1 (stereo unspecified)
inactive | inactive | O=C1C=CC2(C=C1)C(c1ccccc1)=C(I)C(=O)N2C(C(=O)NC1CCCCC1)c1ccccc1Br (stereo unspecified)
inactive | inactive | COc1cc(C(C(=O)NC2CCCCC2)N2C(=O)C(I)=C(c3ccccc3)C23C=CC(=O)C=C3)cc(OC)c1OC (stereo unspecified)
inactive | inactive | Cc1ccccc1C(C(=O)NC(C)(C)C)N1C(=O)C(I)=C(c2ccccc2)C12C=CC(=O)C=C2 (stereo unspecified)
inactive | inactive | COc1ccc(C2=C(c3ccccc3)C3(C=CC(=O)C=C3)N(C(C(=O)NC(C)(C)C)c3ccccc3C)C2=O)cc1 (stereo unspecified)
inactive | inactive | COC1=CC2(C=C(OC)C1=O)C(c1ccccc1)=C(I)C(=O)N2C(C(=O)NC1CCCCC1)c1ccc(OC)c(OC)c1OC (stereo unspecified)
inactive | inactive | CN(C)c1ccc([C@@H]2C(=O)N[C@@H]3CC(=O)C=C[C@@]34C(c3ccccc3)=CC(=O)N24)cc1
